Assay [1] concerns cyclooxygenase (CO) pathway, PGE2 formation in rat peritoneal macrophages. As to the kind of experiment: Rat peritoneal macrophage assay, in vitro: PGE2 formation (CO pathway). It is filed as cell-based. To be noted: stimulated with calcium ionophore A 23187 (5×10^-7 M), PGE2 by radioimmunoassay. From the text:
(§1) RAT PERITONEAL MACROPHAGE ASSAY, IN VITRO
(§2) The rat peritoneal macrophage assay measures the ability of a test compound to influence the release of arachidonic acid (AA) from phospholipid stores in the plasma membrane and the subsequent metabolism of AA by the Δ^5 -lipoxygenase (5-LO) and cyclooxygenase (CO) pathways to the final products excreted by the cells: leukotriene B4 (LTB4, from the 5-LO pathway) and prostaglandin E2 (PGE2, from the CO pathway).
(§3) Macrophages were obtained form rats by peritoneal lavaqe with phosphate buffered saline minus Ca^+2 and Mg^+2 (PBS). Cells were washed 3 times with PBS and resuspended in Delbecco's Modified Eagle medium (Gibco Laboratories) containing L-glutamine and D-glucose and supplemented with 10% fetal calf serum. Cells were counted on a Coulter ZBA cell counter and then resuspended to a concentration of 4×10^6 cells/mL. Three mL of the cell suspension were added to plastic culture dishes (3 cm), and then the cells were allowed to adhere for 90 minutes at 37° C. Dishes were washed 3 times with PBS to remove nonadherent cells. ^14 C-AA (ca. […]) were added to the cells (1 μCi/dish) and allowed to incorporate for 90 minutes. Unincorporated ^14 C-AA was removed and the cell layer was again washed 3 times with PBS. Test compounds were dissolved in DMSO and diluted in phosphate-buffered Hank's balanced salt solution to appropriate concentrations. Cells were incubated with test compounds or the solution used to dissolve the test compounds (control) for 30 minutes at 37° C. and were then stimulated with calcium ionophore A 23187 (5×10^-7 M) for 20 minutes. The extracellular fluid was removed and ^14 C radioactivity released into this fluid from AA metabolism was measured by liquid scintillation spectroscopy. The amounts of LTB4 and PGE2, were measured in the extracellular fluid by radioimmunoassay with specific antisera. The effect of a test compound or standard was calculated as a percent inhibition of the maximum effect produced in the presence of A 23187 and expressed as an inhibitory concentration 50% IC50).
(§4) This assay measures inhibition by the test compounds of the 5-LO and the CO pathways of AA metabolism and this inhibition is expressed as an IC50 for LTB4 and PGE2 formation respectively.

The subject of assay [2] is Δ^5 -lipoxygenase (5-LO) pathway, LTB4 formation in rat peritoneal macrophages. Put plainly: Rat peritoneal macrophage assay, in vitro: LTB4 formation (5-LO pathway). It is filed as cell-based. As to conditions: stimulated with calcium ionophore A 23187 (5×10^-7 M), LTB4 by radioimmunoassay.
Source text: as §1, §2, §3, §4

The test system of assay [3] is rat peritoneal macrophages (^14 C-arachidonic acid release). Put plainly: Rat peritoneal macrophage assay, in vitro: ^14 C release from arachidonic acid metabolism. As to conditions: stimulated with calcium ionophore A 23187 (5×10^-7 M), ^14 C released. The assay is classed as cell-based.
Source text: as §1, §2, §3, §4

The subject of assay [4] is Rat Acetic Acid Colitis Model. As to the kind of experiment: Acetic acid-induced colitis in rats, in vivo (myeloperoxidase accumulation). On the set-up: species or system rat (Sprague-Dawley). The source says:
ACETIC ACID-INDUCED COLITIS IN RATS, IN VIVO
The rat acetic acid induced colitis bioassay has been described by J. E. Krawisz, et al. in Amer. J. Proc. Gastro. Col. Rec. Surg. 31: 11-18 (1980), and by P. Sharon and W. F. Stenson in Gastroenterology 88: 55-63 (1985) and 86: 453-460 (1984). Acetic acid-induced colitis is characterized by the movement of inflammatory cells into the colon, with the number of such cells in the mucosa being measured by the activity of myeloperoxidase, a marker enzyme for these cells. Positive desirable activity is indicated by a reduction in the high levels of myeloperoxidase caused by acetic acid. Male rats (Sprague-Dawley), weighing 150 to 300g, were pretreated twice daily for two days with either the vehicle (water, or dimethylsulfoxide) or the test inhibitor compound suspended in water or dissolved in dimethylsulfoxide and orally administered. On the third day, the animals were dosed the same as on the previous two days, anesthetized with metofane, and 2 ml of 2.5% acetic acid was injected by syringe into the colonic lumen, followed immediately by 3 ml of air and a rinse consisting of 3 ml of phosphate-buffered saline (the acetic acid is present in the lumen for a sufficient period to cause inflammation without producing severe necrosis or irreversible damage). The animals were administered a second dose of the test compound in the same amount about 16 hours later. 24 hours after the acetic acid treatment, the animals were sacrificed, the colonic mucosa was surgically removed and homogenized in an aqueous buffer at pH 6 with a Tissumizer or similar device and myeloperoxidase was measured in the homogenate using o-phenylenediamine as a chromagen, as described by A. Voller, D. E. Bidwell and A. Bartlett in The Enzyme Linked Immunosorbent Assay (ELISA), Zoological Soc., London 1979, pages 29-30. Control animals were pretreated with the vehicle and saline in place of acetic acid.

Assay [5] deals with T1, Δ^5 lipoxygenase from rat basophilic leukemia (RBL-1 cells) (Rattus norvegicus, UniProt P12527).
T1 construct: the resulting supernatant fraction was used as the source of Δ^5 -lipoxygenase; endogenous in cells; host or cells: RBL-1 rat basophilic leukemia cells (supernatant of the homogenate after 49,000 g)
T1 sequence (P12527 1-673): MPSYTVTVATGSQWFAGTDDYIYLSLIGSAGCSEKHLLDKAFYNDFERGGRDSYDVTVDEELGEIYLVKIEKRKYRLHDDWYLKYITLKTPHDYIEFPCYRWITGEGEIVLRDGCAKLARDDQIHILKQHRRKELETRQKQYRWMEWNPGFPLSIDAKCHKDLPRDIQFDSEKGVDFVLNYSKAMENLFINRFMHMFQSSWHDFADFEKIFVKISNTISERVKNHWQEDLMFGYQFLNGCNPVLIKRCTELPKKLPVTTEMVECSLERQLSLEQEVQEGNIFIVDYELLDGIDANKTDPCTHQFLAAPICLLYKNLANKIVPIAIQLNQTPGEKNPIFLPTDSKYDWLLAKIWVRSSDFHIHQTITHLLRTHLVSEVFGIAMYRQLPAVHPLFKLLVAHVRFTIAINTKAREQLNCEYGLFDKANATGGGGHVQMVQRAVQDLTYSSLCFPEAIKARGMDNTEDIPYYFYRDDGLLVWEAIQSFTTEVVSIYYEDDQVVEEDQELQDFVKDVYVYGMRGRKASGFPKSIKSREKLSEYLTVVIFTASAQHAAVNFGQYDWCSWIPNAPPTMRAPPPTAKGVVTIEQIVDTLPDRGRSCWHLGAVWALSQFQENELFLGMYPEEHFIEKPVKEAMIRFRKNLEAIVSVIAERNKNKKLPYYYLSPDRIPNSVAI
Put plainly: In vitro test for Δ^5-lipoxygenase inhibitors. The assay is classed as biochemical. To be noted: RBL-1 supernatant enzyme, 6.7 μM [1-^14 C]arachidonic acid, 10 min preincubation; read-out: IC50 value, Δ^5-lipoxygenase inhibition. As to the method: IN VITRO TEST FOR Δ^5 -LIPOXYGENASE INHIBITORS
In this procedure a compound is tested for its effect on Δ^5 lipoxygenase from rat basophilic leukemia (RBL-1 cells). The activity of this enzyme was determined by measuring the catalytic conversion of [1-^14 C]arachidonic acid to [1-^14 C-5-hydroperoxy- 6,8,11,14-eicosatetraenoic acid ([1-^14 C]-5-HPETE) which leads to the formation of the 5-hydroxy derivative ([1-^14 C]-5-HETE). The Δ^5 -lipoxygenase was derived from the supernatant fraction of lysed RBL-1 cells using a modification of the method previously described by Jakschik and Lee [Nature 287,51 (1980)]. Briefly, RBL-1 cells were lysed by homogenization in ice-cold buffer (50 mM Tris-HCl buffer. PH 7.2, containing 1 mM EDTA and 14 μM indomethacin). The homogenate was centrifuged at 4° at 49,000 g for 20 minutes and the resulting supernatant fraction was used as the source of Δ^5 -lipoxygenase. […] The ethereal extract containing [1-^14 C]-5-HETE and unreacted substrate was analyzed by silica gel TLC using isooctanemethylethyl ketone-acetic acid (100:9:1) as the developing solvent. […] The effect of an inhibitor on Δ^5 -lipoxygenase activity is determined by preincubating the enzyme for 10 minutes at 30° in the presence or absence of various concentrations of the drug prior to addition of substrate. […]

As for `CC(C(=O)O)c1ccc2cc(OCCCCCCc3cccc(O)c3O)ccc2c1` (racemic) [(rac)-6-[6-(2,3-Dihydroxyphenyl)hexyloxy]-alpha-methyl-2-naphthalene-aceticacid], the IC50 in assay [1] is 3000 nM; in assay [2], 600 nM; in assay [3], 1000 nM. Further, in assay [4] (10 mg/kg po), the “% Inhibition of Myeloperoxidase Accumulation” value (shortened to “% Inhibition”) is reported as 88 ± 17%.

Take `O=C(O)c1ccc2cc(OCCCCCCc3cccc(O)c3O)ccc2c1` [6-[6-(2,3-Dihydroxyphenyl)hexyloxy]-2-naphthalenecarboxylic acid]: the results for the IC50 in assay [1], in assay [2] and in assay [3] were 9000 nM, 3000 nM and 3000 nM, respectively. Further, the “% Inhibition” value in assay [4] (1 mg/kg po) came out at 72 ± 8%.

`O=C(O)Cc1ccc2cc(OCCCCCCc3cccc(O)c3O)ccc2c1` [6-[6-(2,3-dihydroxyphenyl)hexyloxy]-2-naphthalene acetic acid]: the 50% inhibitory concentration (IC50) is 5000 nM in assay [1], 900 nM in assay [2] and 3000 nM in assay [3]. For the same compound, the “% Inhibition” value in assay [4] (1 mg/kg po) turned out to be 72 ± 8%.

On to `CCOC(=O)[C@@H](C)c1ccc2cc(OCCCCCCc3cccc(O)c3O)ccc2c1` [(S)-6-[6-(2,3-Dihydroxyphenyl)hexyloxy]-alpha-methyl-2-naphthaleneacetic acid ethyl ester], for which the half-inhibitory concentration (IC50) in assay [1] was 4000 nM; in assay [2] it was 600 nM; in assay [3], 3000 nM. Moreover, the “% Inhibition” value in assay [4] (10 mg/kg po) is listed as 23 ± 5%.

Turning to `C[C@H](C(=O)O)c1ccc2cc(OCCCCCCc3cccc(O)c3O)ccc2c1` [(S)-6-[6-(2,3-dihydroxyphenyl)hexyloxy]-alpha-methyl-2-naphthaleneacetic acid], the half-maximal inhibitory concentration (IC50) in assay [5] was found to be 12 nM; in assay [1], 1000 nM; in assay [2] it was 200 nM; in assay [3], 900 nM. Besides, the “% Inhibition” value in assay [4] (1 mg/kg po) was 90 ± 11%.

On to `C[C@H](C(=O)O)c1ccc2cc(OCCCCCCc3ccc(O)c(O)c3)ccc2c1` [(S)-6-[6-(3,4-dihydroxyphenyl)hexyloxy]-alpha-methyl-2-naphthaleneacetic acid], for which the IC50 in assay [1] is 3000 nM; in assay [2], 600 nM; in assay [3] it was 1000 nM. Moreover, in assay [4] (10 mg/kg po), the “% Inhibition” value came out at 13 ± 2%.

As a reminder, the IC50 is the concentration needed to halve the response being measured.

Values taken from patent US4937373A, “Substituted naphthalene carboxylic acids” (Hoffmann-La Roche Inc., priority 1988, dated 1990).
